Assay results published in ChEMBL document CHEMBL3046409, “Studies on radioprotective and antiviral activities of some bischalcone derivatives” (Med Chem Res, 2012).

How the values were obtained:
Buffalopox virus = test: Antiviral activity against Buffalopox virus infected African green monkey Vero cells assessed as reduction of viral titer after 48 hr; type: functional
Camelpox virus = test: Antiviral activity against Camelpox virus infected African green monkey Vero cells assessed as reduction of viral titer after 48 hr; type: functional
[1] = Cytotoxicity against Chlorocebus aethiops (African green monkey) Vero cells assessed as maximum non-toxic concentration after 24 hr; type: cell-based; details: chlorocebus sabaeus, read-out: Activity

SMILES: O=C1/C(=C/c2ccc(F)cc2)CC/C1=C\c1ccc(F)cc1
- inhibition (INH) (Buffalopox virus): 73.69%
- inhibition (INH) (Camelpox virus): 54.29%
- MNTC at 24 h [1]: 0.0833 µg/mL
